Assay results taken from the supplement of paper PMC10132981, “Formate overflow drives toxic folate trapping in MTHFD1 inhibited cancer cells” (Nature Metabolism, 2023).
± gives the standard deviation of the averaged measurements.

Columns and labels:
SW620 = test: cell viability relative to vehicle (resazurin, 96 h); higher = more viable
Experimental: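 SW620 WT or MTHFD2-/- cells were treated for 96 h with a compound dilution series (log10 M) in RPMI with normal or dialysed FBS. Viability was read by resazurin and is given as % of vehicle.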

HCT116 = test: cell viability relative to lowest-dose well (resazurin, 96 h); higher = more viable; settings: RPMI + 10% FBS
Procedure, shortened: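 Each value gives viability as percent of the lowest-dose well, drawn from independent replicate cultures. Cells (HCT116, 500 cells/well; SW620, 1,000 cells/well) in 50 µl RPMI with 10% FBS and a metabolite supplement were exposed in 384-well plates to compound dilution series for 96 h at 37 °C, 5% CO2. Readout was fluorescence at 595 nm from resorufin formed from resazurin (10 µg ml^−1) over 5 h.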

Cc1c(N2CCN(C)[C@@H](C)C2)ccc2c3c(c(=O)oc12)CN(C(=O)c1ccc(NS(C)(=O)=O)c(OC(F)(F)F)c1)CC3
SW620
Settings	cell viability [%]
log10 compound concentration (M): -5, supplement / serum: 50μM Hypoxanthine, base medium: RPMI + dialysed FBS	59.7 ± 4.3
log10 compound concentration (M): -5, supplement / serum: 50μM Thymidine + 50μM Hypoxanthine, base medium: RPMI + dialysed FBS	79 ± 23
log10 compound concentration (M): -5, supplement / serum: 50μMThymidine, base medium: RPMI + dialysed FBS	13 ± 4.2
log10 compound concentration (M): -5, supplement / serum: No metabolite, base medium: RPMI + dialysed FBS	11 ± 1.3
log10 compound concentration (M): -5, supplement / serum: RPMI + Dialyzed FBS + 50μM Hypoxanthine, base medium: RPMI-1640	59.7 ± 4.3
log10 compound concentration (M): -5, supplement / serum: RPMI + Dialyzed FBS, base medium: RPMI-1640	11 ± 1.3
log10 compound concentration (M): -5, supplement / serum: RPMI + Normal FBS, base medium: RPMI-1640	78.9 ± 37
log10 compound concentration (M): -5.47712, supplement / serum: 50μM Hypoxanthine, base medium: RPMI + dialysed FBS	73.8 ± 15
log10 compound concentration (M): -5.47712, supplement / serum: 50μM Thymidine + 50μM Hypoxanthine, base medium: RPMI + dialysed FBS	87.3 ± 20
log10 compound concentration (M): -5.47712, supplement / serum: 50μMThymidine, base medium: RPMI + dialysed FBS	16.4 ± 0.45
log10 compound concentration (M): -5.47712, supplement / serum: No metabolite, base medium: RPMI + dialysed FBS	16.8 ± 2.8
log10 compound concentration (M): -5.47712, supplement / serum: RPMI + Dialyzed FBS + 50μM Hypoxanthine, base medium: RPMI-1640	73.8 ± 15
log10 compound concentration (M): -5.47712, supplement / serum: RPMI + Dialyzed FBS, base medium: RPMI-1640	16.8 ± 2.8
log10 compound concentration (M): -5.47712, supplement / serum: RPMI + Normal FBS, base medium: RPMI-1640	59.76 ± 0.29
log10 compound concentration (M): -5.95424, supplement / serum: 50μM Hypoxanthine, base medium: RPMI + dialysed FBS	79.2 ± 26
log10 compound concentration (M): -5.95424, supplement / serum: 50μM Thymidine + 50μM Hypoxanthine, base medium: RPMI + dialysed FBS	82.2 ± 17
log10 compound concentration (M): -5.95424, supplement / serum: 50μMThymidine, base medium: RPMI + dialysed FBS	37.8 ± 3.8
log10 compound concentration (M): -5.95424, supplement / serum: No metabolite, base medium: RPMI + dialysed FBS	37.9 ± 1.5
log10 compound concentration (M): -5.95424, supplement / serum: RPMI + Dialyzed FBS + 50μM Hypoxanthine, base medium: RPMI-1640	79.2 ± 26
log10 compound concentration (M): -5.95424, supplement / serum: RPMI + Dialyzed FBS, base medium: RPMI-1640	37.9 ± 1.5
log10 compound concentration (M): -5.95424, supplement / serum: RPMI + Normal FBS, base medium: RPMI-1640	66.4 ± 4.6
log10 compound concentration (M): -6.43136, supplement / serum: 50μM Hypoxanthine, base medium: RPMI + dialysed FBS	78.9 ± 3.7
log10 compound concentration (M): -6.43136, supplement / serum: 50μM Thymidine + 50μM Hypoxanthine, base medium: RPMI + dialysed FBS	89.1 ± 13
log10 compound concentration (M): -6.43136, supplement / serum: 50μMThymidine, base medium: RPMI + dialysed FBS	64.5 ± 0.92
log10 compound concentration (M): -6.43136, supplement / serum: No metabolite, base medium: RPMI + dialysed FBS	67.9 ± 0.74
log10 compound concentration (M): -6.43136, supplement / serum: RPMI + Dialyzed FBS + 50μM Hypoxanthine, base medium: RPMI-1640	78.9 ± 3.7
log10 compound concentration (M): -6.43136, supplement / serum: RPMI + Dialyzed FBS, base medium: RPMI-1640	67.9 ± 0.74
log10 compound concentration (M): -6.43136, supplement / serum: RPMI + Normal FBS, base medium: RPMI-1640	74.7 ± 1.9
log10 compound concentration (M): -6.90849, supplement / serum: 50μM Hypoxanthine, base medium: RPMI + dialysed FBS	85.8 ± 9.7
log10 compound concentration (M): -6.90849, supplement / serum: 50μM Thymidine + 50μM Hypoxanthine, base medium: RPMI + dialysed FBS	72.8 ± 5.9
log10 compound concentration (M): -6.90849, supplement / serum: 50μMThymidine, base medium: RPMI + dialysed FBS	72.2 ± 4.4
log10 compound concentration (M): -6.90849, supplement / serum: No metabolite, base medium: RPMI + dialysed FBS	84.5 ± 21
log10 compound concentration (M): -6.90849, supplement / serum: RPMI + Dialyzed FBS + 50μM Hypoxanthine, base medium: RPMI-1640	85.8 ± 9.7
log10 compound concentration (M): -6.90849, supplement / serum: RPMI + Dialyzed FBS, base medium: RPMI-1640	84.5 ± 21
log10 compound concentration (M): -6.90849, supplement / serum: RPMI + Normal FBS, base medium: RPMI-1640	76.6 ± 3.5
log10 compound concentration (M): -7.38561, supplement / serum: 50μM Hypoxanthine, base medium: RPMI + dialysed FBS	68.9 ± 5.7
log10 compound concentration (M): -7.38561, supplement / serum: 50μM Thymidine + 50μM Hypoxanthine, base medium: RPMI + dialysed FBS	79.5 ± 3.7
log10 compound concentration (M): -7.38561, supplement / serum: 50μMThymidine, base medium: RPMI + dialysed FBS	65.2 ± 1.4
log10 compound concentration (M): -7.38561, supplement / serum: No metabolite, base medium: RPMI + dialysed FBS	66.8 ± 1.8
log10 compound concentration (M): -7.38561, supplement / serum: RPMI + Dialyzed FBS + 50μM Hypoxanthine, base medium: RPMI-1640	68.9 ± 5.7
log10 compound concentration (M): -7.38561, supplement / serum: RPMI + Dialyzed FBS, base medium: RPMI-1640	66.8 ± 1.8
log10 compound concentration (M): -7.38561, supplement / serum: RPMI + Normal FBS, base medium: RPMI-1640	75 ± 9.2
log10 compound concentration (M): -7.86273, supplement / serum: 50μM Hypoxanthine, base medium: RPMI + dialysed FBS	83.7 ± 13
log10 compound concentration (M): -7.86273, supplement / serum: 50μM Thymidine + 50μM Hypoxanthine, base medium: RPMI + dialysed FBS	83.3 ± 4.1
log10 compound concentration (M): -7.86273, supplement / serum: 50μMThymidine, base medium: RPMI + dialysed FBS	70.4 ± 4.7
log10 compound concentration (M): -7.86273, supplement / serum: No metabolite, base medium: RPMI + dialysed FBS	75.1 ± 7.1
log10 compound concentration (M): -7.86273, supplement / serum: RPMI + Dialyzed FBS + 50μM Hypoxanthine, base medium: RPMI-1640	83.7 ± 13
log10 compound concentration (M): -7.86273, supplement / serum: RPMI + Dialyzed FBS, base medium: RPMI-1640	75.1 ± 7.1
log10 compound concentration (M): -7.86273, supplement / serum: RPMI + Normal FBS, base medium: RPMI-1640	73 ± 4.8
log10 compound concentration (M): -8.33985, supplement / serum: 50μM Hypoxanthine, base medium: RPMI + dialysed FBS	84.3 ± 9
log10 compound concentration (M): -8.33985, supplement / serum: 50μM Thymidine + 50μM Hypoxanthine, base medium: RPMI + dialysed FBS	76.1 ± 1.6
log10 compound concentration (M): -8.33985, supplement / serum: 50μMThymidine, base medium: RPMI + dialysed FBS	78.4 ± 12
log10 compound concentration (M): -8.33985, supplement / serum: No metabolite, base medium: RPMI + dialysed FBS	86.2 ± 1.2
log10 compound concentration (M): -8.33985, supplement / serum: RPMI + Dialyzed FBS + 50μM Hypoxanthine, base medium: RPMI-1640	84.3 ± 9
log10 compound concentration (M): -8.33985, supplement / serum: RPMI + Dialyzed FBS, base medium: RPMI-1640	86.2 ± 1.2
log10 compound concentration (M): -8.33985, supplement / serum: RPMI + Normal FBS, base medium: RPMI-1640	92 ± 1.2
log10 compound concentration (M): -8.81697, supplement / serum: 50μM Hypoxanthine, base medium: RPMI + dialysed FBS	83.9 ± 23
log10 compound concentration (M): -8.81697, supplement / serum: 50μM Thymidine + 50μM Hypoxanthine, base medium: RPMI + dialysed FBS	69.4 ± 6.6
log10 compound concentration (M): -8.81697, supplement / serum: 50μMThymidine, base medium: RPMI + dialysed FBS	77.4 ± 7.6
log10 compound concentration (M): -8.81697, supplement / serum: No metabolite, base medium: RPMI + dialysed FBS	70.8 ± 2.4
log10 compound concentration (M): -8.81697, supplement / serum: RPMI + Dialyzed FBS + 50μM Hypoxanthine, base medium: RPMI-1640	83.9 ± 23
log10 compound concentration (M): -8.81697, supplement / serum: RPMI + Dialyzed FBS, base medium: RPMI-1640	70.8 ± 2.4
log10 compound concentration (M): -8.81697, supplement / serum: RPMI + Normal FBS, base medium: RPMI-1640	75.5 ± 4.8
log10 compound concentration (M): -9.29409, supplement / serum: 50μM Hypoxanthine, base medium: RPMI + dialysed FBS	77.29 ± 0.34
log10 compound concentration (M): -9.29409, supplement / serum: 50μM Thymidine + 50μM Hypoxanthine, base medium: RPMI + dialysed FBS	86.3 ± 14
log10 compound concentration (M): -9.29409, supplement / serum: 50μMThymidine, base medium: RPMI + dialysed FBS	105 ± 6.9
log10 compound concentration (M): -9.29409, supplement / serum: No metabolite, base medium: RPMI + dialysed FBS	84.9 ± 13
log10 compound concentration (M): -9.29409, supplement / serum: RPMI + Dialyzed FBS + 50μM Hypoxanthine, base medium: RPMI-1640	77.29 ± 0.34
log10 compound concentration (M): -9.29409, supplement / serum: RPMI + Dialyzed FBS, base medium: RPMI-1640	84.9 ± 13
log10 compound concentration (M): -9.29409, supplement / serum: RPMI + Normal FBS, base medium: RPMI-1640	77 ± 11
log10 compound concentration (M): -9.77121, supplement / serum: 50μM Hypoxanthine, base medium: RPMI + dialysed FBS	85.8 ± 28
log10 compound concentration (M): -9.77121, supplement / serum: 50μM Thymidine + 50μM Hypoxanthine, base medium: RPMI + dialysed FBS	86.4 ± 9.4
log10 compound concentration (M): -9.77121, supplement / serum: 50μMThymidine, base medium: RPMI + dialysed FBS	84.3 ± 26
log10 compound concentration (M): -9.77121, supplement / serum: No metabolite, base medium: RPMI + dialysed FBS	77 ± 17
log10 compound concentration (M): -9.77121, supplement / serum: RPMI + Dialyzed FBS + 50μM Hypoxanthine, base medium: RPMI-1640	85.8 ± 28
log10 compound concentration (M): -9.77121, supplement / serum: RPMI + Dialyzed FBS, base medium: RPMI-1640	77 ± 17
log10 compound concentration (M): -9.77121, supplement / serum: RPMI + Normal FBS, base medium: RPMI-1640	75.8 ± 12

O=c1[nH]cc(F)c(=O)[nH]1 [5-fluorouracil]
cell viability [%], HCT116
Settings	0.0001 M	0.01 µM	0.0278 µM	0.0774 µM	0.215 µM	0.599 µM	1.67 µM	4.64 µM	12.9 µM	35.9 µM
metabolite supplement: 50uM thymidine	4.77 ± 0.15	98.1 ± 2	96.2 ± 1.9	96.3 ± 2.9	97.9 ± 3.3	91.9 ± 1.7	63.7 ± 4.2	24.6 ± 4.1	11.8 ± 1.5	6.83 ± 0.49
metabolite supplement: 50uM thymidine + 250uM hypoxanthine	5.93 ± 1.4	106 ± 8	104 ± 10	105 ± 9.9	106 ± 10	103 ± 13	84 ± 6.1	39.7 ± 12	15.7 ± 3.2	8.5 ± 1.8
metabolite supplement: 250uM hypoxanthine	4.9 ± 0.72	100 ± 1.4	96.9 ± 4.5	97.3 ± 2.1	96.8 ± 2.1	90.6 ± 1.6	78.4 ± 4.6	33.2 ± 7.9	13 ± 2.3	7.4 ± 1.1
metabolite supplement: vehicle	4.53 ± 0.59	102 ± 5.7	102 ± 6.5	101 ± 5.8	99.6 ± 3.5	94.6 ± 4.9	65 ± 3.9	22.9 ± 3.1	11.1 ± 1.5	6.67 ± 0.67
